# Assay results reported in EP0133934A2, “Pharmacologically active 1,3,4-thiadiazol-(3,2-a)-thieno-(2,3-d)-pyrimidin-5-(H)one derivatives” (NIKEPHARMA S.r.l., priority 1983, dated 1985).
# Where two headings read alike, the source gives them in different places.
# Key:
# carrageenin oedema = assay: Antiinflammatory activity: carrageenin oedema in the rat; format: in vivo; settings: po, 4 h, read-out: OEDEMA INHIBITION % at the fourth hour
# Method: (§1) The activity tests were carried out on male Spra gue-Dawley rats weighing 200+20 g and on male Swiss mice weighing 26+3 g.
# (§2) The test compounds were administered orally by means of gastroesophageal tube, in the form of a suspen sion in a 10 ml/kg mucilage of 5% gum arabic; and intraperitoneally in the form of an aqueous suspen sion added with a few drops of Tween 80, in the con stant volume of 10 ml/kg.
# The compounds under test and the control ones were administered orally one hour before the injection of 0.1 ml of 1% carrageenin in the right paw of the animals.
# The volume of the paw was measured by means of a plethysmograph immediately before the injection and 2, 4 and 6 hours after.
# The results were expressed as percentage inhibi tion of the oedema in the treated animals in comparison with the control animals, at the time of the maximum oedema development (fourth hour after the carrageenin injection).
# [1] = system: Writhing test induced by phenyl-benzoquinone; assay: Phenylbenzoquinone writhing test in the rat; format: in vivo
# Method: as §1, §2
# acetic acid peritonitis = assay: Anti-exudative activity: acetic acid peritonitis in the rat; format: in vivo; settings: for PERITONEAL EXUDATE ml ± E.S.: controls 2.91 ± 0.12; for EXUDATE VOLUME ml ± E.S.: controls 2.58 ± 0.18; for anti-exudative activity: oral dose of 10 mg/kg, result in words
# Method: The test was carried out according to the procedure described by Arrigoni-Martelli (Boll.Chim. Far. 107, 29, 1968). This method is based upon the evaluation of the anti-exudative effect of a drug at the peritoneal level, following a intraperitoneal injection of 10 ml/kg of a 0.5% acetic acid solution.
# The compounds under test were administered oral ly one hour before the inflammatory agent; 30 minutes after the treatment the animals were killed and the fluid from the peritoneal cavity was drawn and measured.
# The test compounds were administered by oral route 1 hour before intraperitoneal injection of acetic acid (10 ml/kg of a 0.5% solution).
# The anti-exudative activity was determined on the basis of the peritoneal exudate of the treated animals, in comparison with the controls.
# gastric ulceration = format: in vivo, rat; settings: os; for ULCERA-TION DEGREE: scale 0 to 4
# Method: To rats fasted for 18 hours, with water ad libitum, were administered the compounds under test at "0" time and after 2 hours. Control rats were treated with established anti-inflammatory agents.
# 6 Hours after the beginning of the test, the animals were killed by ether inhalation.
# Gastric ulceration was assessed on the ground of values ranging from 0 to 4: • 0 = no ulceration; • 1 = slight iperhaemia and/or a few ulcers; • 2 = severe iperhaemia and many punctiform ulcers; • 3 = severe submucosal hemorrage, one large ulcer and many punctiform ulcers; • 4 severe submucosal hemorrage and many large ulcers.
# The ulcerogenic index was measured by the following formula (Lwoff. J.M., J. Pharmacol., 2, 81, 1971): [formula]
# [2] = system: phenylbenzoquinone writhing test; assay: Phenylbenzoquinone writhing test in the mouse (ED50 and duration of effect); format: in vivo; settings: for % INHI-BITION / N° OF WRITHES IN 10' ml ± E.S.: Table 6, oral, one hour before the test; for N° OF WRITHES IN 10' ml ± E.S.: controls 52.4 ± 1.69; for % INHIBITION / Nº OF WRITHES IN 10' ml ± E.S.: Table 7, oral 1 mg/kg; for Nº OF WRITHES IN 10' ml ± E.S.: controls 53.2 ± 1.26
# Method: The analgesic effect was determined by the number of writhes of the abdomen recorded during 10 minutes (from 5 to 15 minutes after the phenylbenzo quinone injection).
# Carrageenin pleuritis = Carrageenin pleuritis in the rat; format: in vivo; settings: for EXUDATE VOLUME: 30 min. before carrageenin and 6 hours after, exudate at 18 hours, controls 2.76 ± 0.38
# Method: Compound HA-34 was tested for the protective activity against the exudative pleuritis reaction induced by carrageenin. HA-34 was administered 30 min. before the injection of carrageenin, and 6 hours after it. The experiment was carried out on male Spra- gue-Dawley rats, anestethized with ethyl urethane, which were subjected, in their right pleural cavity, to injection of 1.5 ml of air and then 0.1 ml of a 1% carrageenin solution, in sterile normal saline, according to the procedure by Van Armann et al. (J. Pharmac. Exp. Ther., 150, 328, 1965). Indometha cin and Piroxicam were employed as the control drugs, under the same conditions. 18 Hours after the intrapleuric carrageenin injec tion, the animals were killed by means of ether inhalation, and the pleuric exudate was collected and measured.
# [3] = os, 100 mg/kg, one hour before carrageenin
# [4] = Rattus norvegicus, po, 10 min, os, read-out: % INHIBI-TION
# [5] = Rattus norvegicus, po, Table 4, os, 10 mg/kg
# [6] = 400 mg/kg, at 0 time and after 2 hours, killed at 6 hours
# [7] = 30 min. before phenylbenzoquinone
smiles,measurement,setting,value
CCOc1ccccc1-c1nn2c(=O)c3c4c(sc3nc2s1)CCCC4 [HA 36],inhibition in vivo at 100 mg/kg,carrageenin oedema; [3],52.7 ± 0.61%
same,inhibition in vivo at 0.5 mg/kg,[1]; [4],22%
same,inhibition in vivo at 5 mg/kg,[1]; [4],60%
same,inhibition in vivo at 10 mg/kg,acetic acid peritonitis; [5],49%
same,PERITONEAL EXUDATE ml ± E.S.,"acetic acid peritonitis; Table 4, os, 10 mg/kg",1.48 ± 0.10 mL
same,ULCERA-TION INDEX,gastric ulceration; 400 mg/kg,0
same,% ANIMALS WITH ULCERS,gastric ulceration; [6],0%
same,ULCERA-TION DEGREE,gastric ulceration; 400 mg/kg,0
"CN1C(C(=O)Nc2ccccn2)=C(O)c2ccccc2S1(=O)=O [PIROXICAM, Piroxicam]",inhibition in vivo at 0.1 mg/kg,"acetic acid peritonitis; Rattus norvegicus, po, Table 8, oral, 0.1 mg/kg",24.6%
same,inhibition in vivo at 1 mg/kg,"acetic acid peritonitis; Rattus norvegicus, po, Table 8, oral, 1 mg/kg",51.2%
same,inhibition in vivo at 10 mg/kg,"acetic acid peritonitis; Rattus norvegicus, po, Table 8, oral, 10 mg/kg",80%
same,inhibition in vivo at 20 mg/kg,"acetic acid peritonitis; Rattus norvegicus, po, Table 8, oral, 20 mg/kg",95.2%
same,ED50,"acetic acid peritonitis; Rattus norvegicus, oral administration 1 hour before i.p. acetic acid",0.7 mg/kg
same,EXUDATE VOLUME ml ± E.S.,"acetic acid peritonitis; Table 8, oral, 0.1 mg/kg, 1 hour before acetic acid",1.94 ± 0.08 mL
same,EXUDATE VOLUME ml ± E.S.,"acetic acid peritonitis; Table 8, oral, 0.5 mg/kg",1.37 ± 0.07 mL
same,EXUDATE VOLUME ml ± E.S.,"acetic acid peritonitis; Table 8, oral, 1 mg/kg",1.26 ± 0.06 mL
same,EXUDATE VOLUME ml ± E.S.,"acetic acid peritonitis; Table 8, oral, 10 mg/kg",0.49 ± 0.04 mL
same,EXUDATE VOLUME ml ± E.S.,"acetic acid peritonitis; Table 8, oral, 20 mg/kg",0.12 ± 0.06 mL
same,ED50,"[2]; Mus musculus, 1 h, oral administration one hour before the test, read-out: ED50",1.2 mg/kg
same,% INHI-BITION,[2]; 0.1 mg/kg,11.8%
same,% INHI-BITION,[2]; 0.5 mg/kg,28.4%
same,N° OF WRITHES IN 10' ml ± E.S.,[2]; 0.5 mg/kg,37.5 ± 1.26
same,% INHI-BITION,[2]; 1 mg/kg,54.8%
same,N° OF WRITHES IN 10' ml ± E.S.,[2]; 1 mg/kg,23.7 ± 2.18
same,% INHI-BITION,[2]; 2 mg/kg,61.8%
same,% INHI-BITION,[2]; 5 mg/kg,82.2%
same,N° OF WRITHES IN 10' ml ± E.S.,[2]; 5 mg/kg,9.3 ± 1.44
same,% INHIBITION,[2]; [7],54.5%
same,Nº OF WRITHES IN 10' ml ± E.S.,[2]; [7],24.2 ± 1.62
same,% INHIBITION,[2]; 1 h before phenylbenzoquinone,57.3%
same,Nº OF WRITHES IN 10' ml ± E.S.,[2]; 1 h before phenylbenzoquinone,22.7 ± 2.18
same,% INHIBITION,[2]; 3 h before phenylbenzoquinone,67.6%
same,% INHIBITION,[2]; 4 h before phenylbenzoquinone,63.3%
same,% INHIBITION,[2]; 6 h before phenylbenzoquinone,65.0%
same,% INHIBITION,[2]; 8 h before phenylbenzoquinone,60.1%
same,Nº OF WRITHES IN 10' ml ± E.S.,[2]; 8 h before phenylbenzoquinone,21.2 ± 0.72
same,% INHIBITION,[2]; 24 h before phenylbenzoquinone,57.5%
same,Nº OF WRITHES IN 10' ml ± E.S.,[2]; 24 h before phenylbenzoquinone,22.6 ± 1.37
same,% INHIBITION,[2]; 32 h before phenylbenzoquinone,12.0%
same,% INHIBITION,Carrageenin pleuritis; 5 mg/kg,39.5%
same,EXUDATE VOLUME,Carrageenin pleuritis; 5 mg/kg,1.67 ± 0.33
same,% INHIBITION,Carrageenin pleuritis; 10 mg/kg,64.1%
same,EXUDATE VOLUME,Carrageenin pleuritis; 10 mg/kg,0.99 ± 0.40
"CC(=O)Oc1ccccc1C(=O)O [ASA, Acetylsali cylic acid]",inhibition in vivo at 100 mg/kg,carrageenin oedema,31.4 ± 0.37%
same,inhibition in vivo at 50 mg/kg,"[1]; Rattus norvegicus, po, 10 min, read-out: % INHIBI-TION",40%
same,PERITONEAL EXUDATE ml ± E.S.,"acetic acid peritonitis; Table 4, os, 20 mg/kg",2.76 ± 0.13 mL
same,anti-exudative activity,acetic acid peritonitis,did not display valuable anti-exudat- ing properties
same,% ANIMALS WITH ULCERS,gastric ulceration; 200 mg/kg,78%
same,ULCERA-TION INDEX,gastric ulceration; 200 mg/kg,112
same,ULCERA-TION DEGREE,gastric ulceration; 200 mg/kg,1.5
CCc1nn2c(=O)c3c4c(sc3nc2s1)CCCC4 [HA 32],inhibition in vivo at 100 mg/kg,carrageenin oedema; [3],49.6 ± 0.82%
same,inhibition in vivo at 0.5 mg/kg,[1]; [4],48%
same,inhibition in vivo at 5 mg/kg,[1]; [4],76%
same,inhibition in vivo at 10 mg/kg,acetic acid peritonitis; [5],74%
same,PERITONEAL EXUDATE ml ± E.S.,"acetic acid peritonitis; Table 4, os, 10 mg/kg",0.93 ± 0.14 mL
same,ULCERA-TION INDEX,gastric ulceration; 400 mg/kg,0
same,% ANIMALS WITH ULCERS,gastric ulceration; [6],0%
same,ULCERA-TION DEGREE,gastric ulceration; 400 mg/kg,0
Cc1nn2c(=O)c3c4c(sc3nc2s1)CCC4 [HA 30],inhibition in vivo at 100 mg/kg,carrageenin oedema; [3],35.6 ± 0.74%
same,inhibition in vivo at 0.5 mg/kg,[1]; [4],15%
same,inhibition in vivo at 5 mg/kg,[1]; [4],36%
same,analgesic action,"[1]; oral doses of 5 and 0.5 mg/kg, result in words",substan tially comparable to the reference compound
same,inhibition in vivo at 10 mg/kg,acetic acid peritonitis; [5],14%
same,PERITONEAL EXUDATE ml ± E.S.,"acetic acid peritonitis; Table 4, os, 10 mg/kg",2.50 ± 0.10 mL
same,anti-exudative activity,acetic acid peritonitis,did not display valuable anti-exudat- ing properties
"Cc1cccc(Nc2ccccc2C(=O)O)c1C [MFA, mephenamic acid]",inhibition in vivo at 100 mg/kg,carrageenin oedema; [3],49.2 ± 0.86%
same,inhibition in vivo at 5 mg/kg,[1]; [4],24%
same,inhibition in vivo at 10 mg/kg,"[1]; Rattus norvegicus, po, 10 min, os, 10 mg/kg, read-out: % INHIBI-TION",33%
same,inhibition in vivo at 10 mg/kg,acetic acid peritonitis; [5],6%
same,PERITONEAL EXUDATE ml ± E.S.,"acetic acid peritonitis; Table 4, os, 10 mg/kg",2.60 ± 0.15 mL
same,anti-exudative activity,acetic acid peritonitis,did not display valuable anti-exudat- ing properties
same,% ANIMALS WITH ULCERS,gastric ulceration; 200 mg/kg,50%
same,ULCERA-TION INDEX,gastric ulceration; 200 mg/kg,50
same,ULCERA-TION DEGREE,gastric ulceration; 200 mg/kg,1.0
O=c1c2c3c(sc2nc2sc(-c4ccccc4)nn12)CCCC3 [HA 33],inhibition in vivo at 100 mg/kg,carrageenin oedema; [3],39.6 ± 0.76%
same,inhibition in vivo at 0.5 mg/kg,[1]; [4],27%
same,inhibition in vivo at 5 mg/kg,[1]; [4],70%
same,inhibition in vivo at 10 mg/kg,acetic acid peritonitis; [5],68%
same,PERITONEAL EXUDATE ml ± E.S.,"acetic acid peritonitis; Table 4, os, 10 mg/kg",1.04 ± 0.16 mL
same,ULCERA-TION INDEX,gastric ulceration; 400 mg/kg,0
same,% ANIMALS WITH ULCERS,gastric ulceration; [6],0%
same,ULCERA-TION DEGREE,gastric ulceration; 400 mg/kg,0
